The text below walks through data of patent publication US20040259942A1, “Modulation of stat activity” (priority 2001, published 2004).

Test [1] concerns STAT3. Description: Weak constitutive STAT3 DNA-binding in serum-starved cells (EMSA supershift). The format is cell-based, human. On the technique in general: Mobility shift assays separate free from complexed probe on a gel.
Test [2] relates to STAT3. The test is described as follows: Serum-induced STAT3 tyrosine phosphorylation (immunoblot). The format is cell-based, human. The conditions noted are these: BR293 cells; full medium, 2 hour time course; AG490 pre-treatment. The protocol: (§1) For immunoprecipitation and immunoblotting experiments, cells were grown to confluence in 10 cm dishes and maintained in full medium or starved in serum-free medium overnight before the application of appropriate stimuli. Lysates were prepared in TBSN buffer (50 mM Tris-HCl pH7.5, 150 mM NaCl, 1 mM EDTA, 1% NP-40) supplemented with protease inhibitors (1 mM Na3 VO4, 10 mM Na4P2O7, 10 mM NaF, 5 mM EGTA, 10 mM Benzamidine, 0.2 mM PMSF and 1 μg/ml each of leupeptin, aprotinin, pepstatin). Lysates were cleared by centrifugation at 16,000×g for 10 minutes and used directly for immunoprecipitations or stored at −20° C. for further use.
(§2) Equal amounts of lysates were incubated with the appropriate antibody for 2 hours at 4° C.
(§3) Immune complexes were then allowed to bind to protein A-Sepharose beads for 1 hour at 4° C. and collected by centrifugation. Immunoprecipitates were washed three times in 100 mM Tris-HC1 pH 7.5, […], 1 mM EDTA, 0.1 mM PMSF, 0.5% NP-40. Thereafter, samples were taken up in sodium dodecyl sulphate (SDS) loading buffer and boiled for 5 min.
Samples were separated by electrophoresis through 6% polyacrylamide-SDS gels. Proteins were then transferred to polyvinylidene difluoride (PVDF) membranes with a semi-dry electroblotting apparatus. The membranes were incubated with appropriate primary antibodies at room temperature for 1 hour or 4° C. overnight according to suppliers' instructions, washed and stained with horseradish peroxidase-coupled secondary antibodies. The membranes were developed with an enhanced chemiluminescence kit (Amersham).
as §1, with “Na3VO4,” for “Na3 VO4,”, “aprotinin and” for “aprotinin,”, “use. AG490 was purchased from Sigma; PD153035 was provided by Glaxo-Smith-Kline and PD168393 was purchased from Calbiochem.” for “use.”
Equal amounts of lysates were incubated with the appropriate antibody for 2 hours at 4° C. Immune complexes were then allowed to bind to protein A-Sepharose beads for 1 hour at 4° C. and collected by centrifugation. Immunoprecipitates were washed three times in 10 mM Tris-HCl pH 7.5, 100 mM NaCl, 1 mM EDTA, 0.1 mM PMSF, 0.5% NP-40. Thereafter, samples were taken up in sodium dodecyl sulphate (SDS) loading buffer and boiled for 5 min.
On the technique in general: In western blotting, separated proteins are transferred to a membrane and probed.

Another test concerns the target T1, JAK2 (Homo sapiens, UniProt O60674).
T1 construct: endogenous in cells; host or cells: BR293
The test is described as follows: Serum-induced JAK2 tyrosine phosphorylation (immunoblot). The format is cell-based. The conditions noted are these: BR293 cells; 2 hour time course; AG490 pre-treatment. The protocol: as §1, §2, §3
(§4) Samples were separated by electrophoresis through 6% polyacrylamide-SDS gels. Proteins were then transferred to polyvinylidene difluoride (PVDF) membranes with a semi-dry electroblotting apparatus. […]

Test [3] concerns STAT3. The test is described as follows: STAT3 activation by conditioned medium (CM) from serum-stimulated BR293 cells. The conditions noted are these: serum-starved BR293 cells treated with AG490. It is filed as cell-based, human. On the procedure: OdDHL blocks the autocrine release of mitogens from BC cells (a) Equal numbers of BR293 cells were cultured in MEM alone, serum-free MEM conditioned by serum-stimulated BR293 cells for 2 hours, or the same supplemented with 5% FCS, as indicated. After 24 hours [^3H]-thymidine was added to the medium. After a further 18 hours, cells were harvested and analysed for incorporation of ^3H. Error bars denote SD (n=4). (b) BR293 cells were serum-starved (lane 1) or starved and stimulated with 10% FCS for 2 hours directly (lane 2) or after pretreatment with α-amanitin (1004/ml) for 2.5 hours (lane 3) or actinomycin D ([…]) for 10 min (lane 4). […] Cell lysates were prepared and analysed by Western blotting as described in the legend to FIG. 1a. […] Lysates were prepared from all the cells and analysed by Western blotting as described in the legend to FIG. 1a.
Serum-starved BR293 cells were stimulated with 10% foetal calf serum (FCS) and, after 2 hours, half the cells were harvested while the other cells were washed thoroughly and incubated for a further 4 hours in serum-free medium. […] Nuclear extracts were made from all the cells and analysed for STAT DNA-binding. […]

In the next test the test system is BR293 cells. The test is described as follows: Cell proliferation assay (cell counting). The format is cell-based, human. To be noted: for effect on proliferation over 48 hours: PD 153035 100 nM, PD 168393 2 μM. On the procedure:
(§5) Equal numbers of BR293 and MDA-MB-468 cells were seeded in MEM containing 10% FCS into 10 cm dishes. […]. For the 48 time points, fresh medium containing the appropriate inhibitor was applied to the cells after 24 hours. Controls were allowed to grow for 48 hours in the absence of inhibitor. Thereafter, all the cells were washed twice with ice cold PBS, harvested and counted under a phase-contrast microscope. Values are expressed as averages+S.D. (n=3).
(§6) Equal numbers of BR293, MCF-10F, MCF-7, MDA-MB-468, HKEK293 and COS1 cells were seeded in the appropriate growth medium into 10 cm dishes. Cells were allowed to grow in the presence of various concentrations of OdDHL or OHHL for 24 or 48 hours. For the 48-hour time points, fresh medium containing the appropriate inhibitor was applied to the cells after 24 hours. Controls were allowed to grow for 48 hours in the absence of inhibitor. Thereafter, all the cells were washed twice with ice cold PBS, harvested and counted under a phase-contrast microscope. Values are expressed as averages ±S.D. (n=3).

The next test concerns MDA-MB-468 cells. Description: Cell proliferation assay (cell counting). The format is cell-based, human. To be noted: for effect on proliferation over 48 hours: PD 153035 100 nM, PD 168393 2 μM. On the procedure: as §5, §6
In another test the test system is MCF-10F cells. To be noted: previously shown (refs 5, 11); cited from earlier work.
The test system of a further test is BC cell. The conditions noted are these: ref (7); cited from earlier work.
Another test relates to ErbB2. The test is described as follows: Tyrosine phosphorylation of ErbB2: immunoprecipitation and anti-phosphotyrosine immunoblot. It is filed as cell-based, human. The conditions noted are these: EGF. The protocol:
as §1, §2, §3, §4

The next test concerns ErbB3. Description: Tyrosine phosphorylation of ErbB3: immunoprecipitation and anti-phosphotyrosine immunoblot. It is filed as cell-based, human. The protocol: as §1, §2, §3, §4

T1 sequence (O60674 whole entry): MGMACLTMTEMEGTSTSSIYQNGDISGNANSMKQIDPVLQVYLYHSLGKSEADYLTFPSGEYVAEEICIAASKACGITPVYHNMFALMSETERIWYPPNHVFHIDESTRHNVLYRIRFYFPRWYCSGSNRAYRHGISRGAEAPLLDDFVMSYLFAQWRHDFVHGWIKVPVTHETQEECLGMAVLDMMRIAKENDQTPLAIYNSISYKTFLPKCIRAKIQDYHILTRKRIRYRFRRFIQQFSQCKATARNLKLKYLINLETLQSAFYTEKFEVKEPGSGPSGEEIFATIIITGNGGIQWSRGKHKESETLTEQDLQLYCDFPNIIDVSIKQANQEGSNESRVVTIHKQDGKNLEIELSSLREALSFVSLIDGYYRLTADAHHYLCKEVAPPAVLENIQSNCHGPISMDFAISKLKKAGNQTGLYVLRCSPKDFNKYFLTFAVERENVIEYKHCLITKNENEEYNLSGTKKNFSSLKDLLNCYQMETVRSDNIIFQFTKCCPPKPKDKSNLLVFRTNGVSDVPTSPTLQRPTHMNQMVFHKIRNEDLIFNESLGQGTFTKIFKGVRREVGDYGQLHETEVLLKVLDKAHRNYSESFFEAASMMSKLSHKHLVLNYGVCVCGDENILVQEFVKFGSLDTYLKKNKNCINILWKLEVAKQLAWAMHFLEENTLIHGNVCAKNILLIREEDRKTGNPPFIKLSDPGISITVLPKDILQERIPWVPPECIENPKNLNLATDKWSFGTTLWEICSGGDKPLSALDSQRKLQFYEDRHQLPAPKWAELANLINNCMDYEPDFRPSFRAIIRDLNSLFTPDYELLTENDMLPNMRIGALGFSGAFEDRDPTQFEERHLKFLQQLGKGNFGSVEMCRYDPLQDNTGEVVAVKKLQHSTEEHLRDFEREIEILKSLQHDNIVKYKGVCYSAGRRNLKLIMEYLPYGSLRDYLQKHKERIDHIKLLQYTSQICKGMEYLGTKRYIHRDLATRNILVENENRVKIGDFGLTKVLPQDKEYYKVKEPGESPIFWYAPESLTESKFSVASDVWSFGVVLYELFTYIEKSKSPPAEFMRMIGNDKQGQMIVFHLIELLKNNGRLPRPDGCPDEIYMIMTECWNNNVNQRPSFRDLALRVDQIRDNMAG

As to `N#C/C(=C/c1ccc(O)c(O)c1)C(=O)NCc1ccccc1` [AG490], the “weak STAT3 DNA-binding” value in the test with STAT3 [1] (BT20 and MDA-MB-468 cells, 100 μM) is recorded as “unaffected”. Moreover, the “serum-stimulated STAT3 tyrosine phosphorylation” value with STAT3 [2] was “blocked”. Besides, the “serum-stimulated tyrosine phosphorylation of JAK2” value at JAK2 is on record as “blocked”. In the test with STAT3 [3], the “STAT3 activation by conditioned medium from BR293 cells” value is reported as “no inhibition was observed”. Moreover, the “reduction of cell proliferation” value with BR293 cells (AG490 100 μM, over 48 hours) is on record as more than 75%; in the test with MDA-MB-468 cells (AG490 100 μM, over 48 hours), more than 75%. The “sensitivity to JAK inhibitor” value in the test on MCF-10F cells is listed as “insensitive”. Further, the BC cell proliferation entry with BC cell is reported as “inhibits BC cell proliferation”.

`COc1cc2ncnc(Nc3cccc(Br)c3)c2cc1OC` [PD 153035]: in the test with STAT3 [1] (MDA-MB-468 cells, 100 nM), the “weak, heterogeneous DNA-binding by STAT3 in extracts from serum-starved cells” value is recorded as “had no effect”. The “effect on proliferation over 48 hours” value with BR293 cells and with MDA-MB-468 cells was “no effect on their proliferation” in each case.

On to `C=CC(=O)Nc1ccc2ncnc(Nc3cccc(Br)c3)c2c1` [PD 168393], for which the “effect on proliferation over 48 hours” value in the test with BR293 cells and in the test on MDA-MB-468 cells was “no effect on their proliferation” throughout.

Consider “EGF: Epidermal Growth Factor, used as stimulus”, for which the “stimulation of ErbB2 tyrosine phosphorylation” value with ErbB2 (BR293 cells) amounted to 3.2 fold; in the test on ErbB2 (T47D cells), 5.7 fold. The “induction of ErbB3 tyrosine phosphorylation” value with ErbB3 (cell line co-expressing ErbB1, first value printed (cell line not given)) came out at 6.6 fold; in the test on ErbB3 (cell line co-expressing ErbB1, second value printed (cell line not given)), 6.3 fold.
